Results taken from patent US20060110456A1, “Method for biocidal and/or biostatic treatment and compositions therefor” (NATIONAL UNIVERSITY OF SINGAPORE, priority 2004, published 2006).

Test system: marine bacteria (26 strains)
Assay: Disk inhibition assay
Format: cell-based, marine bacteria isolated from Singapore fouling communities
Conditions: for zone of inhibition at 2 µg/disc: 2 μg per disc; for zone of inhibition at 10 µg/disc: 10 μg per disc
Experimental: Preparation of Drugs onto Disks for Assay
The non-antibiotic pharmaceuticals of Table 1 were prepared in the following way. A tablet with a known amount of active ingredient (as stated in the product information) was ground in a mortar and pestle and suspended in sterile deionized water to a concentration of 2 mg ml^−1. These samples were sonicated for at least 1 min. […] The two halves of the capsule were separated and the powder released straight into a bottle and suitable amount of water added to make a concentration of 2 mg ml^−1.
As a comparison to the pharmaceuticals, to determine the susceptibility of the bacterial isolates to conventional antibiotics, commercially available antibiotic discs were used. Antibiotic discs (Oxoid® CT series) containing Ampicillin [Amp] (2 and 10 μg), Erythromycin [Ery] (5 and 15 μg), Streptomycin [Str] (10 and 25 μg) and Tetracycline [Tet] (5 and 30 μg) were placed on lawns of the bacterial strains inoculated as described below.
Sterile swabs dipped into the cultures were used to inoculate Marine Agar plates with a bacterial lawn by smearing the culture over the surface. After inoculating the plates, discs with antibiotics, pharmaceuticals or control blanks were placed on each plate. Each concentration of antibiotic or pharmaceutical was tested with three replicates on three separate occasions. After the disks were placed on the agar surface, plates were incubated overnight in the dark at 30° C. After incubation, plates were examined for zones of inhibition or clearing around control and treated disks. The diameter of any zone of clearing or inhibition was measured using Vernier calipers.
The assay was repeated three times with three replicates for each concentration used, each time.

CC1(C)S[C@@H]2[C@H](NC(=O)[C@H](N)c3ccccc3)C(=O)N2[C@H]1C(=O)O [Amp, ampicillin]
zone of inhibition at 2 µg/disc (strain 1 (Rhodovulum)): 10 to 19 mm | zone of inhibition at 10 µg/disc (strain 1 (Rhodovulum)): 20 to 29 mm | zone of inhibition at 2 µg/disc (strain 2 (Erythrobacter)): < 6 mm | zone of inhibition at 10 µg/disc (strain 2 (Erythrobacter)): 10 to 19 mm | zone of inhibition at 2 µg/disc (strain 3 (Erythrobacter)): < 6 mm | zone of inhibition at 10 µg/disc (strain 3 (Erythrobacter)): < 6 mm | zone of inhibition at 2 µg/disc (strain 4 (Bacillus)): > 40 mm | zone of inhibition at 10 µg/disc (strain 4 (Bacillus)): > 40 mm | zone of inhibition at 2 µg/disc (strain 6 (Vibrio)): < 6 mm | zone of inhibition at 10 µg/disc (strain 6 (Vibrio)): < 6 mm | zone of inhibition at 2 µg/disc (strain 7 (Vibrio)): 6 to 9 mm | zone of inhibition at 10 µg/disc (strain 7 (Vibrio)): 10 to 19 mm | zone of inhibition at 2 µg/disc (strain 8 (Bacillus)): 20 to 29 mm | zone of inhibition at 10 µg/disc (strain 8 (Bacillus)): 30 to 39 mm | zone of inhibition at 2 µg/disc (strain 9 (Bacillus)): 10 to 19 mm | zone of inhibition at 10 µg/disc (strain 9 (Bacillus)): 30 to 39 mm | zone of inhibition at 2 µg/disc (strain 10 (Halobacillus)): 30 to 39 mm | zone of inhibition at 10 µg/disc (strain 10 (Halobacillus)): > 40 mm | zone of inhibition at 2 µg/disc (strain 11 (Pseudomonas)): 20 to 29 mm | zone of inhibition at 10 µg/disc (strain 11 (Pseudomonas)): 30 to 39 mm | zone of inhibition at 2 µg/disc (strain 12 (Gordonia)): < 6 mm | zone of inhibition at 10 µg/disc (strain 12 (Gordonia)): < 6 mm | zone of inhibition at 2 µg/disc (strain 13 (Bacillus)): 10 to 19 mm | zone of inhibition at 10 µg/disc (strain 13 (Bacillus)): 10 to 19 mm | zone of inhibition at 2 µg/disc (strain 14 (Vibrio)): 10 to 19 mm | zone of inhibition at 10 µg/disc (strain 14 (Vibrio)): 20 to 29 mm | zone of inhibition at 2 µg/disc (strain 16 (Pseudoalteromonas)): 6 to 9 mm | zone of inhibition at 10 µg/disc (strain 16 (Pseudoalteromonas)): 10 to 19 mm | zone of inhibition at 2 µg/disc (strain 17 (Gordonia)): < 6 mm | zone of inhibition at 10 µg/disc (strain 17 (Gordonia)): < 6 mm | zone of inhibition at 2 µg/disc (strain 18 (Microbacterium)): 20 to 29 mm | zone of inhibition at 10 µg/disc (strain 18 (Microbacterium)): 20 to 29 mm | zone of inhibition at 2 µg/disc (strain 19 (Erythrobacter)): 20 to 29 mm | zone of inhibition at 10 µg/disc (strain 19 (Erythrobacter)): 20 to 29 mm | zone of inhibition at 2 µg/disc (strain 20): < 6 mm | zone of inhibition at 10 µg/disc (strain 20): 20 to 29 mm | zone of inhibition at 2 µg/disc (strain 21): < 6 mm | zone of inhibition at 10 µg/disc (strain 21): < 6 mm | zone of inhibition at 2 µg/disc (strain 22): 10 to 19 mm | zone of inhibition at 10 µg/disc (strain 22): 10 to 19 mm | zone of inhibition at 2 µg/disc (strain 24): 30 to 39 mm | zone of inhibition at 10 µg/disc (strain 24): > 40 mm | zone of inhibition at 2 µg/disc (strain 26): 10 to 19 mm | zone of inhibition at 10 µg/disc (strain 26): 10 to 19 mm | zone of inhibition at 2 µg/disc (strain 27): 20 to 29 mm | zone of inhibition at 10 µg/disc (strain 27): 30 to 39 mm | zone of inhibition at 2 µg/disc (strain 28): 6 to 9 mm | zone of inhibition at 10 µg/disc (strain 28): 10 to 19 mm | zone of inhibition at 2 µg/disc (strain 29): 30 to 39 mm | zone of inhibition at 10 µg/disc (strain 29): 30 to 39 mm | zone of inhibition at 2 µg/disc (strain 30): 30 to 39 mm | zone of inhibition at 10 µg/disc (strain 30): 20 to 29 mm
